Data reported in patent US20070049538A1, “METHODS FOR USING CUCURBITACIN COMPOUNDS” (SOUTH DAKOTA STATE UNIVERSITY, priority 2005, published 2007).

Tests used:
[1] = standard compounds; gradient elution and correlation with published data; cited from earlier work
[2] = Chromatographic hydrophobicity index (CHI) by RP-HPLC in buffered methanol; assay type: physicochemical; conditions: for CHIMeOH (b): standard compounds, isochratic and gradient elution of standard mixture; for CHIMeOH: buffered methanol pH 7.0, Econosil C18 150 mm, Eq. (4)
Method: (§1) We used Dynamax liquid chromatograph (Varian Chromatography Systems) with PDA-2 photodiode array UV detector, controlled by the Dynamax PC Chromatography Data System (v. 1.9) software and Dynamax dual pump solvent delivery system, model SD-200. […] Cucurbitacins analytical separation was optimized on Alltima C18 (Alltech; 250 mm×4.6 mm, 5 μm) HPLC column, at gradient elution in acetonitrile (ACN, 30-70% ACN in 57 min), and in MeOH (60-75% MeOH in 50 min). Cucurbitacins stock concentration of 10^−2M in DMSO:ethanol (1:1) was standardized against pure cucurbitacin I (Indofine Chemical Company, Hillsborough, N.J.) by analytical HPLC means. Compounds CHI was measured in both ACN, by using Alltima C18 column, and in MeOH, by using Econosil C18 column (Alltech; 150 mm×4.6 mm, 5 μm). Analytical separations were conducted at a flow rate of 1 ml/min. The aqueous phase was buffered for the CHI measurement. For this purpose, solid ammonium acetate (Fisher Sci. Co., Fair Lawn, N.J.) was dissolved in deionized distilled water at 50 mM final concentration and its pH adjusted to 7.0.
A standard mixture of 10 compounds including 19-21, 23-27, aniline (compound 28) and bromobenzene (compound 29), dissolved in MeOH, was injected at five isochratic elution, at 40, 45, 50, 55, and 60% MeOH. Then the mixture was injected at fast gradient elution to establish the correlation from Eq. (1). The fast linear gradient elution was optimized for 30-100% MeOH in aqueous buffer with 10 min runtime.
(§2) Cucurbitacins lipophilicity was measured by RP-HPLC. […] Due to its high viscosity, aqueous MeOH required a shorter column than the one applied for ACN. First, the C18 columns were calibrated against a standard mixture, and the relationships established between the fast gradient tR and φ0 or published CHI (see Eqs. (2)-(4) from Table 2). Second, cucurbitacins were injected at fast gradient elution under similar conditions, and their CHI calculated (Table 4) from Eqs. (2)-(4). Eqs.

[3] = Chromatographic hydrophobicity index (CHI) by RP-HPLC in buffered acetonitrile; assay type: physicochemical; design: key: CHI = φ0 (isocratic hydrophobicity index), = A·tR + B; ACN % scale; conditions: for CHIACN (b): standard compounds, isochratic and gradient elution of standard mixture; for CHIACN1: buffered acetonitrile pH 7.0, Alltima C18 250 mm, Eq. (2) from isocratic φ0; for CHIACN2: buffered acetonitrile pH 7.0, Eq. (3) calibrated against published CHI
Method: as §1
All standard compounds were purchased from Acros (Acros Organics, NJ). The chromatographic lipophilicity or hydrophobicity was determined applying Valkó's technique (Valkó et al., Anal. Chem. 69 (1997) 2022, the entire disclosure of which is herein incorporated by reference). A standard mixture of seven compounds was prepared in solution: theophylline (compound 19), benzimidazole (compound 20), acetophenone (compound 21), indole (compound 22), propiophenone (compound 23), butyrophenone (compound 24), and valerophenone (compound 25). […] The retention factor, log k=log((tR-t0)/t0), was calculated for each analyte from five good injections of […] sample. The dead time (t0) was measured by injecting NaNO3 together with the sample. Then, the log k values were plotted against isocratic ACN concentrations to establish the linear regression equations for each analyte. From each straight line the isocratic hydrophobicity index was computed, φ0=(intercept/slope). Further, the calibration mixture was injected at fast gradient elution, 0-22 min 0-100% ACN, and three additional minutes at 100% ACN. The φ0 values for the test compounds were plotted against gradient retention time and the linear equation determined from the following equation: φ0=CHI=AtR+B (1)
The gradient elution conditions were similar to the one from the first approach.
as §2

HSC-T6 cells [4] = test: Serum-driven HSC-T6 proliferation, experiment 2 (24 h, starved/quiescent cells); assay type: cell-based, rat; conditions: HSC-T6, 24 h, starved (quiescent) cells; read-out: Experiment 2 EC50
Method: (§3) To overcome this problem, the amount of incubation time was increased to 24 h, and cucurbitacin activity measured on starved (Exp. 2) or proliferative (Exp. 3) cells (Table 8). Cells turned quiescent when serum was not supplemented for one day (Exp. 2). Activity of a few compounds was monitored on quiescent cells, and their activity compared to the ones measured on proliferating cells (Exp. 3).
(§4) We established several experimental conditions such as 4 hours of incubation time with cucurbitacin, and 2 day cell incubation with fresh media after challenging with cucurbitacin (Exp. 1). Other experiments involved addition of cucurbitacin for 24 hours over starved cells (Exp. 2) vs. proliferating cells (Exp. 3), and one day incubation of cells with fresh media after challenge. The 4 hour incubation period with cucurbitacin triggered anti-proliferation effect. This effect, however, was hindered by a second cycle of cell proliferation during the two-day cell growth period (see silybin, E and I glucosides, and for I-nPr). […] Because of that, the challenge time was increased to 24 hours (Exp. 2 and 3).
(§5) In experiment 3, only 40% of the cells divided. The ratio of EC50 values for exp. 2 and exp. 3 varied between 3.6 and 12.7. This may indicate differential cytotoxicity of silybin and cucurbitacin analogs over quiescent and active stellate cells. In other words, compounds show higher anti-proliferative activity on active cells than on quiescent cells.

HSC-T6 cells [5] = test: Cytotoxicity on HSC-T6 cells (experiment 3); assay type: cell-based, rat; conditions: read-out: Experiment 3 IC50 (T)
Source text: Cytotoxicity of all cucurbitacin analogs was additionally measured in experiment 3 (Table 8).

HSC-T6 cells [6] = test: Serum-driven HSC-T6 proliferation, experiment 3 (24 h, proliferating cells); assay type: cell-based, rat; conditions: HSC-T6, 24 h, proliferating cells; read-out: Experiment 3 EC50 (A)
Method: as §3, §4, §5

HSC-T6 cells [7] = test: Serum-driven HSC-T6 proliferation, experiment 1 (4 h challenge, two days drug-free growth); assay type: cell-based, rat; conditions: HSC-T6, 4 h challenge, then two days drug-free media
Method: The proliferation effect of serum on HSC-T6 cells was optimized and cucurbitacin antiproliferative activity was measured. Serum contains a large number of growth factors, hormones and other nutrients, which help cells to grow and multiply. Several trials were conducted. In experiment 1, cells were challenged with cucurbitacin analogs for 4 h and then cells were grown in drug-free media for two additional days.
HSC-T6 cells were photographed under phase-contrast microscope to record possible changes in cell morphology during experiment 1. […] We are monitoring specifically the effect of compound on the cells, cell recovery after 4 h challenge, and relative cell proliferation. […] Live cells are quantified at the end of the assay (row 4) with MTT dye.
We established several experimental conditions such as 4 hours of incubation time with cucurbitacin, and 2 day cell incubation with fresh media after challenging with cucurbitacin (Exp. 1). Other experiments involved addition of cucurbitacin for 24 hours over starved cells (Exp. 2) vs. proliferating cells (Exp. 3), and one day incubation of cells with fresh media after challenge. […] Because of that, the challenge time was increased to 24 hours (Exp. 2 and 3).
We modified this approach. Our assay included a second control (ZC) supplemented with no serum intended to measure cucurbitacin anti-proliferation effect relative to the number of cells generated during challenge instead of the total number of cells present in each well.

HepG2 cells [8] = test: Cucurbitacins cytotoxicity on HepG2 cells (MTT viability assay); assay type: cell-based, human
Method: HepG2 (human hepatocellular carcinoma, ATCC) cells were grown in EMEM (Gibco, Grand Island, N.Y.) supplemented with 10% fetal bovine serum (FBS), and 1% penicillin/fungizone mixture (Gibco). Thabrew's optimized procedure (Thabrew et al., J. Pharm. Pharmcol. 49 (1994) 1442, the entire disclosure of which is herein incorporated by reference) was followed. Cells were batch cultured for 10 days, then seeded at concentration of 30,000 cells/well in fresh media in 96-well microtiter plastic plates at 37° C. for a day. Then cells were exposed to different concentrations of cucurbitacins at final volume of 100 μl/well. Five-fold serial dilution of compounds was carried out in the plate for five consecutive wells. After 24 h of incubation with chemicals, live cells were visualized using the MTT viability assay (Promega, Madison, Wis.). The absorbance was measured at 570 nm. Negative (without cells) and positive (without test chemicals) controls were also incubated with each plate. […] At least three reproducible experiments were performed per compound with three replicate wells per concentration.
Cells were challenged with cu-curbitacins at various concentrations for a day and then live cells quantified with MTT dye. This period of time measures exclusively compounds cytotoxicity, while longer incubation time may lead to interference from metabolites.

HepG2 cells [9] = test: cells; conditions: read-out: EC50 cytoprotection; Table 7; HepG2 against CCl4 toxicity; estimated
Source text: Experimental conditions were standardized on silybin. […]
The ratio of IC50-to-EC50 (hereafter T/A) is also indicated in this table, which gives the margin between toxic and cytoprotective concentrations.

[10] = DPPH* Stable Free Radical Scavenging Assay
Method: Cucurbitacin antioxidant activity was studied first by the DPPH* Stable Free Radical Scavenging Assay (Cotelle et al., Free radical Biology & Medicine 20(1): 35-43, 1996). Experimental conditions were optimized on the standard compound ascorbic acid. Data indicated 30% activity at 50 μM concentration, and 100% activity at 100 μM for ascorbic acid. While the original assay required 10 minutes incubation time for the reaction to occur, this time was increased up to 30 minutes in case cucurbitacin were reacting slower than other reagents.

[11] = test system: lipid peroxidation of microsomal suspension; test: Microsomal Lipid Peroxidation Assay; assay type: biochemical; conditions: at 0.1 mM, both chemical and enzymatic assays
Method: Cucurbitacin anti-lipid peroxidation was studied by the Microsomal Lipid Peroxidation Assay (Engineer et al., Biochemical Pharmacology 38(8): 1279-1285, 1989). Lipid peroxidation of microsomal suspension was induced both enzymatically and chemically and validated on the standard compound quercetin. […] Activity of 3 cucurbitacin analogs, B, E, and E-Me-ether was monitored at 0.1 mM indicating no inhibition in either the chemical or enzymatic assay.

| SMILES | CHIACN (c) [1] | CHIMeOH (b) [2] | CHIACN (b) [3] | EC50 (HSC-T6 cells [4]) | CHIMeOH [2] | IC50 (HSC-T6 cells [5]) | CHIACN1 [3] | CHIACN2 [3] | EC50 (HSC-T6 cells [6]) | EC50 (HSC-T6 cells [7]) | further results |
| --- | --- | --- | --- | --- | --- | --- | --- | --- | --- | --- | --- |
| CCCCC(=O)c1ccccc1 [Valerophenone (25), valerophenone, reference compound] | 97.67 | 73.05 + 0.12 | 86.66 ± 0.08 |  |  |  |  |  |  |  |  |
| CCOC1=CC2C(=CCC3C2(C)C(=O)CC2(C)C(C(C)(O)C(=O)C=CC(C)(C)O)C(O)CC32C)C(C)(C)C1=O (stereo not drawn) [I-Et] |  |  |  | 1.4 µM | 69.61 | 3.5 µM | 69.99 | 73.94 | 0.34 µM | 7.95 µM |  |
| COC1=CC2C(=CCC3C2(C)C(=O)CC2(C)C(C(C)(O)C(=O)C=CC(C)(C)O)C(O)CC32C)C(C)(C)C1=O (stereo not drawn) [I-Me] |  |  |  | 1.4 µM | 66.58 | 6.4 µM | 64.84 | 65.95 | 0.11 µM | 3.4 µM | IC50 (HepG2 cells [8]; Table 4, 24 h incubation, MTT): 15 µM; IC50 (HepG2 cells [8]; Table 5): 15 ± 5.6 µM; IC50 (HepG2 cells [8]; Table 7): 15 µM; EC50 (HepG2 cells [9]): 5.3 µM |
| CCCC(=O)c1ccccc1 [Butyrophenone (24), butyrophenone, reference compound] | 88.49 | 66.79 ± 0.05 | 79.32 ± 0.14 |  |  |  |  |  |  |  |  |
| O=C1O[C@H]([C@@H](O)CO)C(O)=C1O [ascorbic acid] |  |  |  |  |  |  |  |  |  |  | DPPH activity ([10]; at 50 μM): 30%; DPPH activity ([10]; at 100 μM): 100% |
| O=c1c(O)c(-c2ccc(O)c(O)c2)oc2cc(O)cc(O)c12 [quercetin, reference compound] |  |  |  |  |  |  |  |  |  |  | inhibition of lipid peroxidation [11]: 100% |
